According to the OPERA property sets (Mansouri et al. 2018):

Settings: not given

Going from Clc1ccccc1-c1nnc(-c2ccccc2Cl)nn1 to c1ccc(-c2ccccn2)nc1, the log10 Koc (L/kg) falls from 4.66 to 1.6.

Compared with ClC1=C(Cl)[C@]2(Cl)[C@@H]3[C@@H]4C[C@@H]([C@H]5O[C@@H]45)[C@@H]3[C@@]1(Cl)C2(Cl)Cl (single isomer, unassigned), CCCCCCC(=O)OCC is lower in log10 Koc (L/kg): 4.08 for the first, 2.61 for the second.

Going from Clc1ccccc1-c1nnc(-c2ccccc2Cl)nn1 to O=[N+]([O-])c1ccc(N=Nc2ccccc2)cc1, the log10 vapour pressure (mmHg) rises from -9.01 to -5.93.

First: CC(C)C=O
Second: COC(C)(C)CC(C)=O
The log10 vapour pressure (mmHg) of the first is higher: 2.24 for the first, 0.342 for the second.

Compared with C#CC(OC(=O)C1C(C=C(C)C)C1(C)C)/C(C)=C/CC (stereo not given), CCCCCCC(=O)OCC is higher in log10 vapour pressure (mmHg): -3.98 for the first, -0.168 for the second.

Compared with C=C(CC)CCCC, CCCCOCCOCCO is lower in log10 vapour pressure (mmHg): 1.29 for the first, -1.66 for the second.

Compared with BrCBr, CCC(C#N)CC#N (stereo not given) is lower in log10 vapour pressure (mmHg): 1.65 for the first, -1.72 for the second.

With ClC1=C(Cl)[C@]2(Cl)[C@@H]3[C@@H]4C[C@@H]([C@H]5O[C@@H]45)[C@@H]3[C@@]1(Cl)C2(Cl)Cl (single isomer, unassigned) the log10 vapour pressure (mmHg) was -5.38.

Going from Clc1ccccc1-c1nnc(-c2ccccc2Cl)nn1 to c1ccc(-c2ccccn2)nc1, the melting point falls from 182 °C to 72 °C.

First: CC(C)C=O
Second: CC(C)CCC[C@H](C)O
The melting point of the first is higher: -65.9 °C for the first, -105 °C for the second.

First: COc1ccc(CCCO)cc1
Second: CNC(=O)COC(=O)c1ccccc1
The melting point of the first is lower: 26 °C for the first, 112 °C for the second.

Compared with NC(=O)CN1Cc2ccccc2OC1=O, CC(=O)C1CCc2ccccc2C1=O (stereo not given) is lower in melting point: 204 °C for the first, 56 °C for the second.

Going from Nc1ccc2nccnc2c1 to O=[N+]([O-])c1cccc2cnccc12, the melting point falls from 159 °C to 110 °C.

Going from CC(C)c1cccc(C(C)C)c1N to CCC(C)c1cccc(C(C)CC)c1O (stereo not given), the melting point rises from -45 °C to -42 °C.

Going from CC(=O)N[C@@H](CS)C(=O)O to C=C1C[C@@H]1C[C@H](N)C(=O)O, the melting point rises from 110 °C to 282 °C.

Going from O=S(=O)(Cc1ccccc1)c1ccccc1 to O=[N+]([O-])c1ccc(N=Nc2ccccc2)cc1, the melting point falls from 146 °C to 133 °C.

Going from BrCBr to NCCCCCN, the melting point rises from -52.5 °C to 9 °C.

First: CCCOc1ccc([N+](=O)[O-])cc1NC(C)=O
Second: O=C(C[N+](=O)[O-])Nc1ccccc1
The melting point of the first is higher: 102 °C for the first, 94 °C for the second.

Going from CCOC(=O)N1CCN(C(=O)OCC)CC1 to CCCCCCC(=O)OCC, the melting point falls from 47 °C to -66.1 °C.

First: O=C(NC(=O)c1c(F)cccc1F)Nc1cc(Cl)c(OC(F)(F)C(F)C(F)(F)F)cc1Cl (stereo not given)
Second: COc1ccc([C@@H]2CC(=O)c3c(O)cc(O)cc3O2)cc1O
The melting point of the first is lower: 166 °C for the first, 228 °C for the second.

Going from c1ccc(-n2ccnc2)cc1 to CCOC(=O)c1cncn1C(C)c1ccccc1 (stereo not given), the melting point rises from 13 °C to 67 °C.

First: O=C(c1ccccc1)c1ccc2n1CCC2C(=O)O (stereo not given)
Second: ClC1=C(Cl)[C@]2(Cl)[C@@H]3[C@@H]4C[C@@H]([C@H]5O[C@@H]45)[C@@H]3[C@@]1(Cl)C2(Cl)Cl (single isomer, unassigned)
The melting point of the first is lower: 160 °C for the first, 202 °C for the second.

First: CCCCCCCCC(=O)Cl
Second: CCCCOCCOCCO
The melting point of the first is higher: -60.5 °C for the first, -68 °C for the second.

Going from CCC(C#N)CC#N (stereo not given) to CCS(=O)(=O)CCO, the melting point rises from -41 °C to 46 °C.

Going from CC(C)C=O to CC(C)CCC[C@H](C)O, the boiling point rises from 64.5 °C to 174 °C.

First: ClC1=CCCCC1
Second: c1ccc(CCCC2CCCC2)cc1
The boiling point of the first is lower: 142 °C for the first, 272 °C for the second.

Compared with C#CC(OC(=O)C1C(C=C(C)C)C1(C)C)/C(C)=C/CC (stereo not given), COC(C)(C)CC(C)=O is lower in boiling point: 296 °C for the first, 160 °C for the second.

Compared with CC1(C)CCc2ccccc21, CCN(C)c1ccccc1 is higher in boiling point: 191 °C for the first, 204 °C for the second.

Going from C=CC(=O)OCC(F)(F)C(F)F to CCCCCCC(=O)OCC, the boiling point rises from 132 °C to 187 °C.

Going from C=CC#CCCC to C=C(CC)CCCC, the boiling point rises from 110 °C to 120 °C.

Going from CC(C)c1cccc(C(C)C)c1N to CCC(C)c1cccc(C(C)CC)c1O (stereo not given), the boiling point rises from 257 °C to 258 °C.

First: BrCBr
Second: FC=C(F)Br
The boiling point of the first is higher: 97 °C for the first, 19 °C for the second.

Compared with CCOC(=O)N1CCN(C(=O)OCC)CC1, CC1=C(C)C2CCC1C2 is lower in boiling point: 315 °C for the first, 140 °C for the second.

Compared with CC1CCOC(C)O1 (stereo not given), ClC1=C(Cl)[C@]2(Cl)[C@@H]3[C@@H]4C[C@@H]([C@H]5O[C@@H]45)[C@@H]3[C@@]1(Cl)C2(Cl)Cl (single isomer, unassigned) is higher in boiling point: 116 °C for the first, 330 °C for the second.

Compared with c1ccc(-n2ccnc2)cc1, c1ccc(-c2ccccn2)nc1 is lower in boiling point: 276 °C for the first, 274 °C for the second.

First: CSCSC
Second: CNCCNC
The boiling point of the first is higher: 148 °C for the first, 120 °C for the second.

Going from NCCCCCN to CCCCCCCCC(=O)Cl, the boiling point rises from 179 °C to 215 °C.

First: CCC(C#N)CC#N (stereo not given)
Second: CCCC(CCC)CCC
The boiling point of the first is higher: 264 °C for the first, 158 °C for the second.

CCCCOCCOCCO showed a boiling point of 231 °C.

For CC(C)C=O, the ready biodegradability was “readily biodegradable”.
With Cc1cc(-n2nc3ccc(Cl)cc3n2)c(O)c(C(C)(C)C)c1 the ready biodegradability was “not readily biodegradable”.
With CCC(C)c1cccc(C(C)CC)c1O (stereo not given) the ready biodegradability was “not readily biodegradable”.
For ClC1=C(Cl)[C@]2(Cl)[C@@H]3[C@@H]4C[C@@H]([C@H]5O[C@@H]45)[C@@H]3[C@@]1(Cl)C2(Cl)Cl (single isomer, unassigned), the ready biodegradability was “not readily biodegradable”.
For CCCCOCCOCCO, the ready biodegradability was “readily biodegradable”.
For CCCCCCCCCCCCCCCCCCOC(=O)CCc1cc(C(C)(C)C)c(O)c(C(C)(C)C)c1, the ready biodegradability was “not readily biodegradable”.
For COC(C)(C)CC(C)=O, the ready biodegradability was “not readily biodegradable”.

First: BrCBr
Second: CCCCCCC(=O)OCC
The log10 Henry constant (atm·m³/mol) of the first is higher: -3.09 for the first, -3.3 for the second.

Going from ClC1=C(Cl)[C@]2(Cl)[C@@H]3[C@@H]4C[C@@H]([C@H]5O[C@@H]45)[C@@H]3[C@@]1(Cl)C2(Cl)Cl (single isomer, unassigned) to CCCCOCCOCCO, the log10 Henry constant (atm·m³/mol) falls from -5.09 to -8.14.

Compared with BrCBr, ClC1=C(Cl)[C@]2(Cl)[C@@H]3[C@@H]4C[C@@H]([C@H]5O[C@@H]45)[C@@H]3[C@@]1(Cl)C2(Cl)Cl (single isomer, unassigned) is higher in log10 Koa: 3.07 for the first, 8.52 for the second.

Same assay, conditions: fish

Going from Clc1ccc2c(oc3c(Cl)c(Cl)c(Cl)c(Cl)c32)c1Cl to ClC1=C(Cl)[C@]2(Cl)[C@@H]3[C@@H]4C[C@@H]([C@H]5O[C@@H]45)[C@@H]3[C@@]1(Cl)C2(Cl)Cl (single isomer, unassigned), the log10 BCF rises from 2.78 to 3.91.

Work on CCC(C)c1cccc(C(C)CC)c1O (stereo not given) yielded a log10 BCF of 2.39.

Compared with Clc1ccc2c(oc3c(Cl)c(Cl)c(Cl)c(Cl)c32)c1Cl, ClC1=C(Cl)[C@]2(Cl)[C@@H]3[C@@H]4C[C@@H]([C@H]5O[C@@H]45)[C@@H]3[C@@]1(Cl)C2(Cl)Cl (single isomer, unassigned) is higher in log10 biotransformation half-life (days): 0.43 for the first, 1.65 for the second.

CCC(C)c1cccc(C(C)CC)c1O (stereo not given) showed a log10 biotransformation half-life (days) of -0.22.
